Consider one sequence from US9012403B2, “Peptides as active agents to stabilize biological barriers” (XiberScience GmbH, priority 2010, dated 2015).

Test [1] deals with GEF. Nature of the test: GEF-activity in membrane fractions of ECV304 cells (RhoGEF Exchange Assay). The format is cell-based. As to conditions: ECV 304, no stimulus, peptide 50 μg/ml. The protocol:
(§1) To measure the GEF-inhibitory effect, the following cell lines were used: Caco-2 (epithelial cells from adeno-carcinoma), ECV304 (epithelial cells from bladder carcinoma) and HpMec (endothelial cells, immortalized pulmonary micro-vascular cells). All cells were grown at standard conditions (37° C., 5% CO2 and 95% relative humidity (rH)). Culture Medium used for Caco-2: DMEM+1 mM sodium pyruvate+20% FCS+1% Penicillin Streptomycin; for ECV 304: RPMI 1640+10% FCS+1% Penicillin Streptomycin; and for HpMec: IMDM+25 mM Hepes+10% Human Serum+1% Penicillin Streptomycin+1% L-Glutamine+ECGS/Heparin 2 ml. 4 h before the experiment, cells were starved by serum withdrawal. To induce GEF-activity, cells were stimulated with thrombin, lipopolysaccharide (LPS) or PMA for the indicated time in presence or absence of 50 μg/ml XIB1-a or XIB1-b. After stimulation, membrane fractions were prepared by using the commercial available “Compartemental Protein Extraction Kit” from Biochain institutes. Membrane fractions were prepared according to the manufacturer instructions. GEF-activity in membrane lysates was determined by using “RhoGEF Exchange Assay Biochem Kit” from Cytoskeleton Inc. according to manufacturer instructions. GEF-activity was measured as fluorescence at using the Fluoroskan Ascent FL 2.6 from Thermo Electron Corporation. The excitation Filter wavelength was set at 355 nm and the emission filter wavelength at 460 nm.

For test [2], the system named is GEF. Nature of the test: GEF-activity in membrane fractions of Caco-2 cells (RhoGEF Exchange Assay). Conditions: CaCo-2, no stimulus, peptide 50 μg/ml. It is filed as cell-based. Here is the method: as §1
The test system of test [3] is GEF. Briefly: GEF-activity in membrane fractions of HpMec cells (RhoGEF Exchange Assay). The format is cell-based. Conditions: HpMec, no stimulus, peptide 50 μg/ml. Here is the method: as §1
For test [4], the system named is GTP-bound RhoA. Nature of the test: GTP-associated active RhoA in ECV304 membrane fraction (western blot). It is filed as cell-based. As to conditions: ECV 304, no stimulus, peptide 50 μg/ml. Here is the method:
(§2) To measure the GTP-associated active RhoA, the following cell lines were used: Caco-2, ECV304 and HpMec. All cells were grown at standard conditions (37° C., 5% CO2 and 95% rH). 4 h before the experiment, cells were starved by serum withdrawal. To induce GEF-activity, cells were stimulated with thrombin, LPS or PMA for the indicated time in presence or absence of 50 μg/ml XIB1-a or XIB1-b. After stimulation, membrane fractions were prepared by using the commercial available “Compartemental Protein Extraction Kit” from Biochain Institutes. Membrane fractions were prepared according to the manufacturer instructions. The membrane fraction was separated on 15% polyacrylamide gel according to standard procedures of gel electrophoresis. The gels were afterwards blotted on a nitrocellulose membrane according to standard procedures of western blotting. GTP-bound RhoA was detected using RhoA-GTP monoclonal antibody from NewEast Inc. in a dilution of 1:5000. Protein bands were analyzed with the Dolphin-1D Gel analysis system (Wealtec).
For orientation: In western blotting, separated proteins are transferred to a membrane and probed.

The subject of test [5] is GTP-bound RhoA. Briefly: GTP-associated active RhoA in Caco-2 membrane fraction (western blot). It is filed as cell-based. As to conditions: CaCo-2, no stimulus, peptide 50 μg/ml. Here is the method: as §2
For test [6], the system named is GTP-bound RhoA. Briefly: GTP-associated active RhoA in HpMec membrane fraction (western blot). It is filed as cell-based. As to conditions: HpMec, no stimulus, peptide 50 μg/ml. Here is the method:
as §2

In test [7] the test system is Phosphorylated Myosin Light Chain (MLC) and actin stress fibers. Nature of the test: MLC phosphorylation and actin stress fiber formation in ECV304 cells (microscopy score). It is filed as cell-based. Conditions: ECV 304, no stimulus, peptide 50 μg/ml. The protocol: (§3) To measure MLC phosphorylation and actin stress fiber formation, the following cell lines were used: Caco-2, ECV304 and HpMec. All cells were grown at standard conditions (37° C., 5% CO2 and 95% rH). Culture Medium used: for Caco-2: DMEM+1 mM sodium pyruvate+20% FCS+1% Penicillin Streptomycin; for ECV 304: RPMI 1640+10% FCS+1% Penicillin Streptomycin; and for HpMec: IMDM+25 mM Hepes+10% Human Serum+1% Penicillin Streptomycin+1% L-Glutamine+ECGS/Heparin 2 ml. 4 h before the experiment, cells were starved by serum withdrawal. To induce GEF-activity, cells were stimulated with thrombin, LPS or PMA for the indicated time in presence or absence of 50 μg/ml XIB1-a or XIB1-b. After stimulation, cells were fixed using 4% PFA. Phospho MLC was detected by using the “rabbit anti phosphor-myosin light chain antibody” from Chemicon in a concentration of 3 μl/ml in PBS (Gibco) supplemented with 0.1% Triton X-100. As detection antibody, the Alexa 448 tagged “anti Rabbit IgG Antibody” from Invitrogen was used in a concentration of 0.5 μl/ml in PBS (Gibco) supplemented with 0.1% Triton X-100. Aktin was detected using TRITC-labeled Phalloidin in a concentration of 0.5 μl/ml in PBS (Gibco) supplemented with 0.1% Triton. Stained cells were analyzed by using a Zeiss Laser Scan microscope. Evaluation of the cyto-skeletal activation was performed by 2 independent observers that were blinded to the conditions. Evaluation criteria were set as follows:
(§4) Actin: parallel actin bundles absent=0; distinct bundle formation=1; prominent parallel bundles=2; Phospho-MLC: present at cell poles=0; slight co-localization with actin bundles=1; prominent co-localization with actin bundles=2

Test [8] has the same test system. Nature of the test: MLC phosphorylation and actin stress fiber formation in Caco-2 cells (microscopy score). The format is cell-based. Conditions: CaCo-2, no stimulus, peptide 50 μg/ml. The protocol: as §3, §4
Test [9] shares this test system. Nature of the test: MLC phosphorylation and actin stress fiber formation in HpMec cells (microscopy score). The format is cell-based. Conditions: no stimulus, peptide 50 μg/ml. Here is the method:
as §3, §4

Test [10] has as its system LPS induced lung injury. Nature of the test: LPS induced lung injury, bronchoalveolar lavage. It is filed as in vivo. As to conditions: mice, n = 20. The protocol:
Male C57Bl/6 Mice (Charles River, Germany) were kept at the animal facility of the Medical University of Vienna, feed with standard diet and water was provided ad libitum. All interventions were performed according to the guide lines of AAALAC (Association for Assessment and Accreditation of Laboratory Animal Care). All experiment were approved by the Ethic committee of the Medical University of Vienna. Mice were anesthetized with isoflouran and treated with 100 ng of LPS (E. coli O55:B5, Sigma Aldrich) intranasally. XIB1-a or XIB1-b was applied either intra-peritoneally (2×2 mg/kg) or via inhalation (2×4 mg/kg), first application was performed concomitantly with LPS administration, the second application was performed 1 h after the LPS inhalation.
The trachea was exposed through a midline incision and canulated with a sterile 20-gauge catheter (BD Venflon™, Becton Dickinson Infusion Therapy, Helsingborg, Sweden). Bilateral broncho-alveolar lavage fluid (BALF) was gained by instilling two 0.5 ml aliquots of sterile saline. Approximately 0.9-1 ml BALF was retrieved per mouse. Total cell numbers were counted from each sample using a hemo-cytometer (Türck chamber), BALF differential cell counts were done on cytospin preparations stained with Giemsa. For protein measurements, BALF was diluted 1:2 in buffer containing 300 mM NaCl, 30 mM Tris, 2 mM MgCl2, 2 mM CaCl2, and Pepstatin A, Leupeptin and Aprotinin (all 20 ng/ml; pH 7.4). Protein levels in BALF were measured using the BCA protein kit according to the manufacturer's instructions (Pierce, Rockford, Ill.).
In addition, the same set-up as described above was used for comparing the impact of XIB1-b compared to Bβ15-42 (PLoS ONE (2009), 4(4): e5391), a peptide derived from fibrin having the sequence […] (SEQ ID NO: 41). Bβ15-42 was added in the same manner as XIB1-b. Again, protein content and cell count of BALF was measured.

The mark [11] stands for this setting: 6 h after LPS administration, intratracheal application.

Marks after values point to notes of the source that are not given here.

With “GGGGGLSRRIP (/note=“Description of artificial sequence variable insert”) [Control Peptide, random peptide used for control purposes, reference compound]”, the “GEF-activity, relative values compared to unstimulated control (Mean)” value in test [1] (1 min), in test [1] (5 min), in [2] (1 min), in test [2] (5 min), in test [3] (1 min) and in test [3] (5 min) was 1 throughout. Besides, the “GTP-bound RhoA, relative values compared to unstimulated control (Mean)” value in [4] (1 min), in [4] (5 min), in test [5] (1 min), in test [5] (5 min), in [6] (1 min) and in test [6] (5 min) was 1 in each case. The “MLC phosphorylation and actin stress fiber formation, evaluation score (Mean)” value in test [7] (1 min), in [7] (5 min), in test [8] (1 min), in test [8] (5 min), in test [9] (1 min) and in test [9] (5 min) was 0 in each case. The “counts of neutrophils in the BALF (mean +/ SD)” value was 91 +/− 33 neutrophils/ml (× 10^3) in test [10] (comparison with Bβ15-42 (Table 6), 6 h after LPS, intraperitoneal application); 94 +/− 30 neutrophils/ml (× 10^3) in test [10] (comparison with Bβ15-42 (Table 6), 6 h after LPS, intratracheal plus intraperitoneal application); 88 +/− 33 neutrophils/ml (× 10^3) in test [10] (6 h after LPS administration, intraperitoneal application (2×2 mg/kg)); 90 +/− 30 neutrophils/ml (× 10^3) in test [10] (setting [11]). The “albumine content of BALFs (mean +/ SD)” value worked out at 250 ± 25 µg/mL in test [10] (comparison with Bβ15-42 (Table 6, last section), 6 h after LPS, intraperitoneal application as printed) and 237 ± 32 µg/mL in [10] (setting [11]).
